In EP0989125B1, “Pesticidal furylmethyl cyclopropanecarboxylates” (Sumitomo Chemical Company, Limited, priority 1998, dated 2000):

Experiments:
[1] = tested on: tobacco cutworm (Spodoptera litura); test: Biological test 1: artificial bait impregnated with emulsion; details: 500 ppm emulsion, 4-instar larvae, after 6 days
[2] = tested on: webbing clothes moth (Tineola bisselliella); test: Biological test 12: topical application to webbing clothes moth larvae; format: in vivo; details: 3 µg / insect, after 7 days
Experimental: Each of the present compounds diluted with acetone to a predetermined concentration was applied to ten middle instar larvae of webbing clothes moth (Tineola bisselliella) at the central part of the back so as to give the active ingredient in a dose of 3 µg / insect. A wool muslin fabric (2 cm × 2 cm in size) was given to the webbing clothes moths as the food. After 7 days, the mortality and the degree of damage of the wool muslin fabric by the moths were examined (two replicate).

[3] = tested on: brown planthopper (Nilaparvata lugens); test: Biological test 2: rice plant stalk dipped in emulsion; format: in vivo; details: 500 ppm aqueous emulsion, larvae, after 6 days
Experimental: A stalk of a rice plant was dipped for one minute in a 500 ppm aqueous emulsion obtained by diluting each emulsifiable concentrate of the present compounds prepared according to the formulation example 1. The rice plant stalk was air-dried and placed in a polyethylene cup (diameter : 5.5 cm) where filter paper (diameter : 5.5 cm) impregnated with 1 ml of water was put. Approximately 30 larvae of brown planthopper (Nilaparvata lugens) were put in the polyethylene cup. After 6 days, the mortality of the larvae was examined.

[4] = tested on: houseflies (Musca domestica); test: Biological test 9: topical application of acetone solution to houseflies; format: in vivo; details: 5 µg / one housefly, after 24 hours
Experimental: After 24 hours, the percent moribund was examined (two replicate).

[5] = tested on: houseflies (Musca domestica); test: Biological test 10: vapour exposure over treated aluminum plate, houseflies; format: in vivo; details: 0.64 ml of 0.05 (w/v) % acetone solution, no direct contact, 25 °C for 120 minutes, after 24 hours
Experimental: (§1) After 0.64 ml of a 0.05 (w/v) % acetone solution of the present compounds was dropped into an aluminum plate (bottom diameter : 7 cm), acetone was air-dried. Ten female houseflies (Musca domestica) were left in a polyethylene cup (diameter : 9 cm; depth : 4.5 cm) and the cup was sealed with a 16-mesh nylon net to prevent direct contact of the houseflies with the compound. The cup was placed upside down on the aluminum plate at 25 °C for 120 minutes. The cup was then removed from the aluminum plate, and water and feed were given to the houseflies. After 24 hours, the percent moribund was examined (two replicate).

[6] = tested on: common mosquitoes (Culex pipiens pallens); test: Biological test 11: vapour exposure over treated aluminum plate, mosquitoes; format: in vivo; details: 0.64 ml of 0.05 (w/v) % acetone solution, no direct contact, 25 °C for 120 minutes, after 24 hours
Experimental: as §1, with “common mosquitoes (Culex pipiens pallens)” for “houseflies (Musca domestica)”, “mosquitoes” for “houseflies”, “mosquitoes.” for “houseflies.”, “mortality” for “percent moribund”

[7] = tested on: common mosquitoes (Culex pipiens pallens); test: Biological test 8: mosquito-coil in glass chamber, knock-down; format: in vivo; details: 1.0 g of 0.3 % mosquito-coil, 0.34 m^3 chamber, after 15 minutes
Experimental: Mosquito-coil containing the present compound in an amount of 0.3 % was prepared according to the formulation example 10 for the present compounds. Ten female common mosquitoes (Culex pipiens pallens) were left in a glass chamber (70 cm × 70 cm × 70 cm : 0.34 m^3) and 1.0 g of 0.3 % mosquito-coil having both ends lit was placed in the glass chamber. After 15 minutes, the rate of knocked-down mosquitoes was examined.

[8] = tested on: common mosquitoes (Culex pipiens pallens); test: Biological test 6: mosquito larvae in treated water; format: in vivo; details: 3.5 ppm active ingredient in water, last-instar larvae, after one day; 1440 min
Experimental: 0.7 ml of aqueous emulsion, obtained by diluting emulsifiable concentrate prepared for each of the present compounds according to the formulation example 1 was added to 100 ml of ion-exchanged water (concentration of active ingredient : 3.5 ppm). Twenty last-instar larvae of common mosquitoes (Culex pipiens pallens) were left in the water. After one day, the mortality of the common mosquitoes was examined.

[9] = tested on: houseflies (Musca domestica); test: Biological test 4: treated filter paper with sucrose bait, houseflies low sensitive to pyrethroids; details: 500 ppm aqueous emulsion, female houseflies low sensitive to pyrethroids, after one day; 1440 min
[10] = tested on: common mosquitoes (Culex pipiens pallens); test: Biological test 7: oil solution sprayed in glass chamber, knock-down; format: in vivo; details: 0.7 ml of 0.1 % oil solution sprayed, 0.34 m^3 chamber, after 15 minutes
Experimental: Ten female common mosquitoes (Culex pipiens pallens) were left in a glass chamber (70 cm × 70 cm × 70 cm : 0.34 m^3). 0.7 ml of 0.1 % oil solution prepared for each of the present compounds according to the formulation example 7 was sprayed with a spray gun at 0.8 atmospheric pressure. After 15 minutes, the rate of knocked-down mosquitoes was examined.

[11] = tested on: southern corn rootworm (Diabrotica undecimpunctata howardi); test: Biological test 3: treated filter paper with eggs and sprouting corn; details: 50 ppm aqueous emulsion, after 8 days
[12] = tested on: webbing clothes moth (Tineola bisselliella); test: Biological test 14: persistence of treated filter paper in cardboard box, webbing clothes moth larvae; format: in vivo; design: key to degree of damage: -: no damage; +: slight damage; ++: heavy damage; +++: severe damage; details: 36 mg on filter paper
Experimental: A filter paper (3.2 cm × 3.2 cm in size) treated with 36 mg of each of the present compounds and two wool muslin fabrics (25 cm × 25 cm in size) were hung down at the upper part of a corrugated cardboard box (29 cm × 29 cm × 29 cm in size). After standing at 25 °C and a humidity of 60 % for 1 week, two tea-strainer balls holding 7 to 10 middle instar larvae of webbing clothes moth (Tineola bisselliella) and one piece of wool muslin cloth (2 cm × 2 cm in size) were hung down at the upper part of the box. The box was closed with a lid. After one week, the box was opened, and the percent moribund and the degree of damage of the wool muslin cloth by the moths were examined. The same tests was repeated 2 weeks, 3 weeks and 5 weeks after the treatment to examine the persistance of the present compound. The degree of damage was represented by "-" in no damage, " + " in slight damage, " ++ " in heavy damage and "+++ " in severe damage.

[13] = tested on: German cockroaches (Blattella germanica); test: Biological test 5: treated filter paper with sucrose bait, cockroaches low sensitive to pyrethroids; details: 500 ppm aqueous emulsion, male cockroaches low sensitive to pyrethroids, after six days; 8640 min
[14] = tested on: webbing clothes moth (Tineola bisselliella); test: Biological test 13: volatile agent hung in cup with webbing clothes moth larvae; format: in vivo; details: volatile agent (100 µg on filter paper), 25 °C for 1 week; for mortality: 10080 min
Experimental: A wool muslin fabric (2 cm × 2 cm in size) was placed on the bottom of a polyethylene cup (bottom diameter : 10 cm, opening part diameter : 12.5 cm, height : 9.5 cm, volume : 950 cm^3 ). Ten middle instar larvae of webbing clothes moth (Tineola bisselliella) were put in the cup and each of the volatile agents prepared according to the formulation example 14 was hung from the cap in the interior of the cup. After standing at 25 °C for 1 week, the cup was opened, and the mortality and the degree of damage of the wool muslin fabric by the moths were examined (two replicate).

[15] = tested on: rats; details: male 7-week old rats, into the stomach in corn oil, after 7 days
Experimental: After subjecting the rats to a twenty-hour fasting, 0.1 ml of the diluted solution per 10g weight was forcibly applied into the stomach of four male 7-week old rats. The rats were given food and water four hours after the application and thereafter regularly fed and watered, and kept in a cage. After 7 days, the mortality was examined for the rats and LD50 was calculated.

| SMILES | mortality [1] | degree of damage of the wool muslin fabric [2] | mortality [2] | mortality [3] | percent moribund [4] | percent moribund [5] | mortality [6] | rate of knocked-down mosquitoes [7] | mortality [8] | mortality [9] | rate of knocked-down mosquitoes [10] | mortality of the hatched larvae and eggs [11] | degree of damage ([12]; After 1 week) | percent moribund ([12]; After 1 week) | degree of damage ([12]; After 2 weeks) | percent moribund ([12]; After 2 weeks) | degree of damage ([12]; After 3 weeks) | percent moribund ([12]; After 3 weeks) | degree of damage ([12]; After 5 weeks) | percent moribund ([12]; After 5 weeks) | also measured |
| --- | --- | --- | --- | --- | --- | --- | --- | --- | --- | --- | --- | --- | --- | --- | --- | --- | --- | --- | --- | --- | --- |
| CCc1ccc(COC(=O)[C@@H]2[C@H](/C=C(\Cl)C(F)(F)F)C2(C)C)o1 (racemic) [present compound (2), 5-ethyl-2-furfuryl (1RS,cis)-3-(Z-2-chloro-3,3,3-trifluoroprop-1-enyl)-2,2-dimethylcyclopropanecarboxylate] | 100% | no damage | 100% | ≥ 90% | 100% | 100% | 100% | 100% | ≥ 90% | 100% | ≥ 90% | 100% | - | 100% | - | 100% | - | 100% | - | 100% | mortality [13]: 100%; degree of damage of the wool muslin fabric [14]: no damage; mortality [14]: 100% |
| CCCc1ccc(COC(=O)[C@@H]2[C@H](/C=C(\Cl)C(F)(F)F)C2(C)C)o1 (racemic) [present compound (3), 5-propyl-2-furfuryl (1RS,cis)-3-(Z-2-chloro-3,3,3-trifluoroprop-1-enyl)-2,2-dimethylcyclopropanecarboxylate] | 100% | no damage | 100% | ≥ 90% | 100% | 100% | 100% | 100% | ≥ 90% | 100% | ≥ 90% | 100% | - | 100% | - | 100% | - | 100% | - | 100% | mortality [13]: 100%; degree of damage of the wool muslin fabric [14]: no damage; mortality [14]: 100% |
| C=CCc1ccc(COC(=O)[C@@H]2[C@H](/C=C(\Cl)C(F)(F)F)C2(C)C)o1 (racemic) [present compound (4), 5-allyl-2-furfuryl (1RS,cis)-3-(Z-2-chloro-3,3,3-trifluoroprop-1-enyl)-2,2-dimethylcyclopropanecarboxylate] | 100% | no damage | 100% | ≥ 90% | 100% | 100% | 100% | 100% | ≥ 90% | 100% | ≥ 90% | 100% | - | 100% | - | 100% | - | 100% | - | 100% | mortality [13]: 100%; degree of damage of the wool muslin fabric [14]: no damage; mortality [14]: 100% |
| CC1(C)C(/C=C(\Cl)C(F)(F)F)C1C(=O)OCc1coc(Cc2ccccc2)c1 (centres unmarked) [A, reference compound] |  |  |  |  |  |  |  |  |  |  |  |  | +++ | 0% | +++ | 0% | +++ | 5% | +++ | 5% | LD50 [15]: less than 50 mg/kg |
| CC1(C)C(/C=C(\Cl)C(F)(F)F)C1C(=O)OCc1ccc(C(F)F)o1 (centres unmarked) [B, reference compound] |  |  |  |  |  |  |  |  |  |  |  |  | +++ | 50% | +++ | 33% | +++ | 53% | +++ | 42% |  |
| C#CCc1ccc(COC(=O)C2C(/C=C(\Cl)C(F)(F)F)C2(C)C)o1 (centres unmarked) [C, reference compound] |  |  |  |  |  |  |  |  |  |  |  |  | +++ | 7% | +++ | 63% | +++ | 20% | +++ | 37% | LD50 [15]: less than 100 mg/kg |
